Laboratory results as given in patent publication US20240174624A1, “CHIRAL N-(1,3,4-OXADIAZOLE-2-YL)PHENYL CARBOXYLIC ACID AMIDES AND THEIR USE AS HERBICIDES” (Bayer Aktiengesellschaft, priority 2021, published 2024).

Legend:
[1] = system: TRZAS; assay: Post-emergence damage to crop plants; type: in vivo, Triticum aestiva; details: 20 g a.i./ha, comparative experiment
Method: (§1) Seeds of monocotyledonous and dicotyledonous weed and crop plants are laid out in sandy loam soil in wood-fibre pots, covered with soil and cultivated in a greenhouse under good growth conditions. 2 to 3 weeks after sowing, the test plants are treated at the one-leaf stage. The compounds of the invention, formulated in the form of wettable powders (WP) or as emulsion concentrates (EC), are then sprayed onto the green parts of the plants in the form of an aqueous suspension or emulsion at a water application rate equating to 600 to 800 l/ha, with addition of 0.2% wetting agent. After the test plants have been left to stand in the greenhouse under optimal growth conditions for about 3 weeks, the action of the preparations is assessed visually in comparison to untreated controls (herbicidal action in percent (%): 100% activity=the plants have died, 0% activity=like control plants). […] The tables below illustrate, in an illustrative manner, the post-emergence herbicidal action of the compounds of the invention, the herbicidal activity being stated in percent. In the experiments that follow, the herbicidal action of the compounds of the invention and that of the corresponding known racemic compounds closest from WO2012126932 and WO2018202535 were compared under the above-specified conditions by the pre-emergence and post-emergence method. The example numbers given in the tables relate to the compounds disclosed in the respective documents.

[2] = system: ECHCG; assay: Pre-emergence herbicidal action; type: in vivo, Echinochloa crus-galli; details: 80 g/ha, scored after 3 weeks
Source text: (§2) Seeds of monocotyledonous and dicotyledonous weed plants and crop plants are laid out in sandy loam soil in wood-fibre pots and covered with soil. The compounds of the invention, formulated in the form of wettable powders (WP) or as emulsion concentrates (EC), are then applied to the surface of the covering soil in the form of an aqueous suspension or emulsion at a water application rate equivalent to 600 to 800 l/ha, with addition of 0.2% wetting agent. After the treatment, the pots are placed in a greenhouse and kept under good growth conditions for the trial plants. The damage to the test plants is scored visually after a test period of 3 weeks by comparison with untreated controls (herbicidal activity in percent (%): 100% activity=the plants have died, 0% activity=like control plants). […] The tables below illustrate, in an illustrative manner, the post-emergence herbicidal action of the compounds of the invention, the herbicidal activity being stated in percent.

[3] = system: SETVI; assay: Pre-emergence herbicidal action; type: in vivo, Setaria viridis; details: scored after 3 weeks
Source text: as §2, with “percent. In the experiments that follow, the herbicidal action of the compounds of the invention and that of the corresponding known racemic compounds closest from WO2012126932 and WO2018202535 were compared under the above-specified conditions by the pre-emergence and post-emergence method. The example numbers given in the tables relate to the compounds disclosed in the respective documents.” for “percent.”

[4] = system: DIGSA; assay: Post-emergence herbicidal action; type: in vivo, Digitaria sanguinalis; details: for Post-emergence action against DIGSA: assessed after about 3 weeks
Method: as §1

[5] = system: VERPE; assay: Post-emergence herbicidal action; type: in vivo, Veronica persica; details: 5 g a.i./ha, comparative experiment
Method: as §1

[6] = system: BRSNW; assay: Post-emergence damage to crop plants; type: in vivo, Brassica napus; details: 20 g a.i./ha, comparative experiment
Method: as §1, with “The example numbers given in the tables relate to the compounds disclosed in the respective documents.” left out

[7] = system: ALOMY; assay: Pre-emergence herbicidal action; type: in vivo, Alopecurus myosuroides; details: for Pre-emergence action against ALOMY: scored after 3 weeks
Source text: as §2, with “percent. In the experiments that follow, the herbicidal action of the compounds of the invention and that of the corresponding known racemic compounds closest from WO2012126932 and WO2018202535 were compared under the above-specified conditions by the pre-emergence and post-emergence method. The example numbers given in the tables relate to the compounds disclosed in the respective documents.” for “percent.”

[8] = system: AMARE; assay: Post-emergence herbicidal action; type: in vivo, Amaranthus retroflexus; details: assessed after about 3 weeks
Method: as §1, with “percent.” for “percent. In the experiments that follow, the herbicidal action of the compounds of the invention and that of the corresponding known racemic compounds closest from WO2012126932 and WO2018202535 were compared under the above-specified conditions by the pre-emergence and post-emergence method. The example numbers given in the tables relate to the compounds disclosed in the respective documents.”

[9] = system: GLXMA; assay: Pre-emergence damage to crop plants; type: in vivo, Glycine max; details: comparative experiment
Source text: as §2, with “percent. In the experiments that follow, the herbicidal action of the compounds of the invention and that of the corresponding known racemic compounds closest from WO2012126932 and WO2018202535 were compared under the above-specified conditions by the pre-emergence and post-emergence method. The example numbers given in the tables relate to the compounds disclosed in the respective documents.” for “percent.”

[10] = system: SETVI; assay: Post-emergence herbicidal action; type: in vivo, Setaria viridis; details: assessed after about 3 weeks
Method: as §1

[11] = system: MATIN; assay: Pre-emergence herbicidal action; type: in vivo, Matricaria inodora; details: scored after 3 weeks
Source text: as §2, with “percent. In the experiments that follow, the herbicidal action of the compounds of the invention and that of the corresponding known racemic compounds closest from WO2012126932 and WO2018202535 were compared under the above-specified conditions by the pre-emergence and post-emergence method. The example numbers given in the tables relate to the compounds disclosed in the respective documents.” for “percent.”

[12] = system: MATIN; assay: Post-emergence herbicidal action; type: in vivo, Matricaria inodora; details: 20 g/ha, assessed after about 3 weeks
Method: as §1, with “percent.” for “percent. In the experiments that follow, the herbicidal action of the compounds of the invention and that of the corresponding known racemic compounds closest from WO2012126932 and WO2018202535 were compared under the above-specified conditions by the pre-emergence and post-emergence method. The example numbers given in the tables relate to the compounds disclosed in the respective documents.”

[13] = system: LOLRI; assay: Post-emergence herbicidal action; type: in vivo, Lolium rigidum; details: 20 g a.i./ha, comparative experiment
Method: as §1, with “The example numbers given in the tables relate to the compounds disclosed in the respective documents.” left out

[14] = system: POLCO; assay: Pre-emergence herbicidal action; type: in vivo, Polygonum convolvulus; details: 80 g/ha, scored after 3 weeks
Source text: as §2, with “percent. In the experiments that follow, the herbicidal action of the compounds of the invention and that of the corresponding known racemic compounds closest from WO2012126932 and WO2018202535 were compared under the above-specified conditions by the pre-emergence and post-emergence method. The example numbers given in the tables relate to the compounds disclosed in the respective documents.” for “percent.”

[15] = system: ZEAMX; assay: Post-emergence damage to crop plants; type: in vivo, Zea mays; details: 20 g a.i./ha, comparative experiment
Method: as §1

[16] = system: VERPE; assay: Pre-emergence herbicidal action; type: in vivo, Veronica persica; details: 80 g/ha, scored after 3 weeks
Source text: as §2, with “percent. In the experiments that follow, the herbicidal action of the compounds of the invention and that of the corresponding known racemic compounds closest from WO2012126932 and WO2018202535 were compared under the above-specified conditions by the pre-emergence and post-emergence method. The example numbers given in the tables relate to the compounds disclosed in the respective documents.” for “percent.”

[17] = system: VIOTR; assay: Pre-emergence herbicidal action; type: in vivo, Viola tricolor; details: scored after 3 weeks
Source text: as §2

[18] = system: ZEAMX; assay: Pre-emergence damage to crop plants; type: in vivo, Zea mays; details: 80 g a.i./ha, comparative experiment
Source text: as §2, with “percent. In the experiments that follow, the herbicidal action of the compounds of the invention and that of the corresponding known racemic compounds closest from WO2012126932 and WO2018202535 were compared under the above-specified conditions by the pre-emergence and post-emergence method. The example numbers given in the tables relate to the compounds disclosed in the respective documents.” for “percent.”

[19] = system: LOLRI; assay: Pre-emergence herbicidal action; type: in vivo, Lolium rigidum
Source text: as §2, with “percent. In the experiments that follow, the herbicidal action of the compounds of the invention and that of the corresponding known racemic compounds closest from WO2012126932 and WO2018202535 were compared under the above-specified conditions by the pre-emergence and post-emergence method. The example numbers given in the tables relate to the compounds disclosed in the respective documents.” for “percent.”

[20] = system: AVEFA; assay: Pre-emergence herbicidal action; type: in vivo, Avena fatua
Source text: as §2, with “percent. In the experiments that follow, the herbicidal action of the compounds of the invention and that of the corresponding known racemic compounds closest from WO2012126932 and WO2018202535 were compared under the above-specified conditions by the pre-emergence and post-emergence method. The example numbers given in the tables relate to the compounds disclosed in the respective documents.” for “percent.”

[21] = system: AMARE; assay: Pre-emergence herbicidal action; type: in vivo, Amaranthus retroflexus; details: scored after 3 weeks
Source text: as §2

[22] = system: ECHCG; assay: Post-emergence herbicidal action; type: in vivo, Echinochloa crus-galli; details: 20 g/ha, assessed after about 3 weeks
Method: as §1

[23] = system: DIGSA; assay: Pre-emergence herbicidal action; type: in vivo, Digitaria sanguinalis; details: scored after 3 weeks
Source text: as §2

[24] = 20 g a.i./ha, comparative experiment

SMILES: Cc1nnc(NC(=O)c2ccc(C(F)(F)F)c([S+]([O-])C3CC3)c2Cl)o1 (stereo in doubt) [Example I-4, 2-chloro-N-(5-methyl-1,3,4-oxadiazol-2-yl)-3-[(S)-cyclopropylsulfinyl]-4-(trifluoromethyl)benzamide]
- Damage to TRZAS [1]: 20%
- Pre-emergence action against ECHCG [2]: 100%
- Pre-emergence action against SETVI ([3]; 20 g/ha): 100%
- Pre-emergence action against SETVI ([3]; 80 g/ha): 100%
- Post-emergence action against DIGSA ([4]; 5 g/ha): 90%
- Herbicidal action against DIGSA [4, 24]: 100%
- Post-emergence action against DIGSA ([4]; 20 g/ha): 100%
- Herbicidal action against VERPE [5]: 60%
- Damage to BRSNW [6]: 80%
- Herbicidal action against ALOMY [7, 24]: 80%
- Pre-emergence action against ALOMY ([7]; 20 g/ha): 80%
- Pre-emergence action against ALOMY ([7]; 80 g/ha): 100%
- Post-emergence action against AMARE ([8]; 5 g/ha): 100%
- Post-emergence action against AMARE ([8]; 20 g/ha): 100%
- Damage to GLXMA ([9]; 20 g a.i./ha): 40%
- Damage to GLXMA ([9]; 80 g a.i./ha): 80%
- Post-emergence action against SETVI ([10]; 5 g/ha): 100%
- Post-emergence action against SETVI ([10]; 20 g/ha): 100%
- Pre-emergence action against MATIN ([11]; 20 g/ha): 80%
- Pre-emergence action against MATIN ([11]; 80 g/ha): 100%
- Post-emergence action against MATIN [12]: 80%
- Herbicidal action against LOLRI [13]: 60%
- Pre-emergence action against POLCO [14]: 80%
- Damage to ZEAMX [15]: 0%
- Pre-emergence action against VERPE [16]: 100%
- Pre-emergence action against VIOTR ([17]; 20 g/ha): 100%
- Pre-emergence action against VIOTR ([17]; 80 g/ha): 100%
- Damage to ZEAMX [18]: 50%
- Herbicidal action against LOLRI [19, 24]: 50%
- Pre-emergence action against LOLRI ([19]; 80 g/ha, scored after 3 weeks): 80%
- Herbicidal action against AVEFA [20, 24]: 30%
- Pre-emergence action against AVEFA ([20]; 80 g/ha, scored after 3 weeks): 90%
- Pre-emergence action against AMARE ([21]; 20 g/ha): 100%
- Pre-emergence action against AMARE ([21]; 80 g/ha): 100%
- Post-emergence action against ECHCG [22]: 90%
- Pre-emergence action against DIGSA ([23]; 20 g/ha): 100%
- Pre-emergence action against DIGSA ([23]; 80 g/ha): 100%
